Patent US8653075B2, “Therapeutic methods employing substituted piperidines which are CCR3 antagonists” (Boehringer Ingelheim International GmbH, priority 2009, dated 2014)
pKi: −log10 of the molar value. One block for each molecule: values may come before it.

Biological target: T1, human chemokine receptor CCR3 (Homo sapiens, UniProt P51677)
T1 construct: expressed in transfected cells; host or cells: K562 cell line (hCCR3-C1 cells), membrane preparation
T1 sequence (P51677 1-355): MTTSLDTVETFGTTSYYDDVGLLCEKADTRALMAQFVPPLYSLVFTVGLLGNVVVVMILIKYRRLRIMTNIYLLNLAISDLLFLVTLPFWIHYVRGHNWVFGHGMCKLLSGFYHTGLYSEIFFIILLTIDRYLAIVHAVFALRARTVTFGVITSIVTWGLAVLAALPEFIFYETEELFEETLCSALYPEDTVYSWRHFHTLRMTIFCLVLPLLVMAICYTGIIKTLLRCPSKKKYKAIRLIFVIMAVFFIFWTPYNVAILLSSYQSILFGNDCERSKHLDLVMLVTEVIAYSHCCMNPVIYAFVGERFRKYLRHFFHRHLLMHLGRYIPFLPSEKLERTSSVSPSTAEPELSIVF
Assay: CCR3 receptor binding assay (SPA, 125I-eotaxin-1 displacement, hCCR3-C1 K562 cell membranes)
Details: human Eotaxin-1 at human CCR3-Rezeptor; for inhibition at 1 µM: 1 μM test compound, read-out: CCR3 % inh @ 1 μM; for pKi: dose range 0.1 to 10000 nM
Method in brief: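 SPA displacement of recombinant human 125I-eotaxin-1 (30.000 dpm per well) from membranes of CCR3-transfected K562 cells (0.5-10 μg protein/well) on WGA beads. Buffer was 25 mM HEPES, 25 mM MgCl2, 1 mM CaCl2, 0.1% BSA; incubation 2 h at room temperature. Specific binding was total minus NSB (unlabelled eotaxin-1), giving % inhibition and Ki.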

inhibition at 1 µM: 100% | pKi: 8.52
SMILES: CNC(=O)c1cc(NC(=O)[C@H]2CCC(=O)N2C2CCN(Cc3ccc(Cl)c(C)c3)CC2)cc(C(=O)N(C)C)c1 [Example 106]

inhibition at 1 µM: 96%
SMILES: Cc1cc(-c2nc[nH]n2)cc(NC(=O)C2CCC(=O)N2C2CCN(Cc3ccc(Cl)c(C)c3)CC2)n1 (stereo not shown) [Example 210]

inhibition at 1 µM: 97% | pKi: 8.05
SMILES: CCN(C)S(=O)(=O)c1cccc(NC(=O)[C@H]2CCC(=O)N2C2CCN(Cc3ccc(Cl)c(C)c3)CC2)c1 [Example 20]

The remaining lines, values behind:

SMILES: Cc1cc(CN2CCC(N3C(=O)CC[C@H]3C(=O)NC3CCN(S(C)(=O)=O)C3)CC2)ccc1Cl (stereo partly shown) [Example 53]
inhibition at 1 µM: 33% | pKi: 5.70

SMILES: Cc1cc(CN2C3CCC2CC(N2C(=O)CC[C@@H]2C(=O)Nc2cccc(-c4nnnn4C)c2)C3)ccc1Cl (stereo partly shown) [Example 77]
inhibition at 1 µM: 96% | pKi: 7.42

SMILES: CNC(=O)c1cccc(NC(=O)[C@@H]2COC(=O)N2C2CCN(Cc3ccc(Cl)c(C)c3)CC2)c1 [Example 119]
inhibition at 1 µM: 87% | pKi: 7.09

SMILES: Cc1cc(CN2CCC(N3C(=O)CC[C@H]3C(=O)N3CCc4ccc(F)cc4C3)CC2)ccc1Cl [Example 73]
inhibition at 1 µM: 48% | pKi: 6.04
